Laboratory results: article PMC7156412, “Inhibition of the deubiquitinase USP10 induces degradation of SYK” (British Journal of Cancer, 2020)

Key:
SYK [1] = assay: Immunoblot of SYK protein levels in MV4-11 cells; type: cell-based; conditions: 24 h of treatment
Procedure: (§1) Protein lysate preparation, immunoblotting and immunoprecipitation were carried out as previously described.[21]

USP7 = conditions: cited from earlier work
USP10 = conditions: cited from earlier work
Ba/F3-FLT3-ITD cells = tested on: Ba/F3-FLT3-ITD cells; parameters: method as in PMID 28967922; conditions: cited from earlier work
FLT3 [2] = assay: Immunoblot of FLT3 protein levels in Ba/F3-FLT3-ITD cells; type: cell-based, murine; conditions: for Induction of FLT3 degradation: Ba/F3-FLT3-ITD cells, 24 hr, 10-20 µM; for FLT3 protein levels: all treated oncogenic FLT3-expressing cells, 24 h
Procedure: as §1

[3] = tested on: FLT3-ITD-positive MOLM14 cells; parameters: method as in PMID 28967922; conditions: cited from earlier work
SYK [4] = assay: Immunoblot of SYK protein levels in Ba/F3-FLT3-ITD cells; type: cell-based, murine; conditions: 24 h of treatment
Procedure: as §1

SYK [5] = assay: Immunoblot of SYK protein levels in PBMCs from normal donors; type: cell-based; conditions: 24 h of treatment
Procedure: as §1

SYK [6] = assay: Immunoblot of SYK in Ba/F3-FLT3-ITD+TKD point mutant cells; type: cell-based, murine; conditions: Ba/F3-FLT3-ITD+TKD point mutant cells (A627T, F691L, G697R, F691I), 24 hr, 5-10 µM
Procedure: as §1

FLT3 [7] = assay: Immunoblot of FLT3 in Ba/F3-FLT3-ITD+TKD point mutant cells; type: cell-based, murine; conditions: Ba/F3-FLT3-ITD+TKD point mutant cells (A627T, F691L, G697R, F691I), 24 hr, 5-10 µM
Procedure: as §1

Chain of SYK (P48025 whole entry): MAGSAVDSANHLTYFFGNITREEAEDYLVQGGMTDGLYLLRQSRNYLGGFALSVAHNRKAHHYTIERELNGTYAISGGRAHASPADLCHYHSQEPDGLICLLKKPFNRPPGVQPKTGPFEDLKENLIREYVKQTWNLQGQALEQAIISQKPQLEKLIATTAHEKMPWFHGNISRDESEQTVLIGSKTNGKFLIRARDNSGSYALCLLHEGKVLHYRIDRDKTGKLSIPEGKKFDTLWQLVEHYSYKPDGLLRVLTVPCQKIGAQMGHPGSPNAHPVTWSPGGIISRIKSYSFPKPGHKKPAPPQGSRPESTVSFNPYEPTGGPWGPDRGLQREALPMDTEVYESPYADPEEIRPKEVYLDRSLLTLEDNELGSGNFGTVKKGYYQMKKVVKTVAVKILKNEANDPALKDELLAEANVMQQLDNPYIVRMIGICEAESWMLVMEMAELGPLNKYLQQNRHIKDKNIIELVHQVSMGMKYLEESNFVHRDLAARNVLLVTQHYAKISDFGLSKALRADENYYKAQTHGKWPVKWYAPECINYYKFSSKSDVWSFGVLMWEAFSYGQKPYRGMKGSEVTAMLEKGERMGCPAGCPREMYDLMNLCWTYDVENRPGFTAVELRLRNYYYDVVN

In the case of HBX19818, the “Effect on SYK protein levels” value (SYK [1]) is given as “downregulated”, the “Inhibition of USP7 activity” value (USP7) is given as “inhibit the activity” and the “Inhibition of USP10 activity” value (USP10) is given as “inhibit the activity”. For the same compound, the “Combination effect with crenolanib or midostaurin” value (Ba/F3-FLT3-ITD cells) was “synergistic effects”, the “Induction of FLT3 degradation” value (FLT3 [2]) was “Induction of FLT3 degradation” and the FLT3 protein levels (FLT3 [2]) was “lower”. The “Combination effect with crenolanib or midostaurin” value [3] was “synergistic effects”, the “Effect on SYK protein levels” value (SYK [4]) was “downregulated” and the “Effect on SYK protein levels” value (SYK [5]) was “loss of SYK protein”.
In the case of `CCCN(CCC)CCCNC(=O)c1ccc2c(Cl)c3c(nc2c1)CCCC3` [C598-0466], the “USP10 inhibitory activity in biochemical assay” value (USP10; Ub-AMC as substrate, as previously determined) is given as “showing activity against USP10”, the “Induction of FLT3 degradation” value (FLT3 [2]) is given as “Induction of FLT3 degradation” and the “Effect on SYK protein levels” value (SYK [4]) is given as “strongly inducing degradation of SYK protein”.
In the case of `CC(=O)c1cc([N+](=O)[O-])c(Sc2ccc(F)cc2F)s1` [P22077], the “Effect on SYK protein levels” value (SYK [1]) is listed as “downregulated”, the “Inhibition of USP7 activity” value (USP7) is listed as “inhibit the activity” and the “Inhibition of USP10 activity” value (USP10) is listed as “inhibit the activity”. The “Effect on SYK protein levels” value (SYK [6]) was “induces degradation of SYK and FLT3”, the “Effect on FLT3 protein levels” value (FLT3 [7]) was “induces degradation of SYK and FLT3” and the “Induction of FLT3 degradation” value (FLT3 [2]) was “Induction of FLT3 degradation”. For the same compound, the FLT3 protein levels (FLT3 [2]) was “lower”, the “Effect on SYK protein levels” value (SYK [4]) was “downregulated” and the “Effect on SYK protein levels” value (SYK [5]) was “loss of SYK protein”.
